Row | melting point | Compound
1 | 205 to 207 °C | CNC(=O)c1cc(Cl)cc(C)c1NC(=O)c1cc(Cl)nn1-c1ncccc1Cl
2 | 215 to 217 °C | CNC(=O)c1cc(Cl)cc(C)c1NC(=O)c1cc(OCC(F)(F)F)nn1-c1ncccc1Cl
3 | 200 to 204 °C | CCn1nc(C(F)(F)F)cc1NC(=O)c1c(C)cccc1C(=O)NC(C)C [Example 1, 2-[1-Ethyl-3-trifluoromethylpyrazol-5-ylcarbamoyl]-3-methyl-N-(1-methylethyl)benzamide]
4 | 233 to 235 °C | Cc1cccc(C(=O)NC(C)C)c1NC(=O)c1cc(C(F)(F)F)nn1-c1ncccc1C(F)(F)F [Example 3, N-[2-Methyl-6-[[(1-methylethyl)amino]carbonyl]phenyl]-3-(trifluoromethyl)-1-[3-(trifluoromethyl)-2-pyridinyl]-1H-pyrazole-5-carboxamide]
